Experimental data from PubChem BioAssay AID2060885 (Molecular Pharmacology Branch, DTP, NCI, 2025).
Several values for one entry are separate records, joined by “and”; a condition that tells them apart may be missing. Identical values can stand only once.

Test system: NCI-H23 complex spheroids with HUVEC/MSC, viability
Test: Anticancer human tumor NCI-H23 cell line growth inhibition [RAS];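 note: spheroids exposed to compound for 7 days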;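 for viability, T/C: 100% = DMSO vehicle control viability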
Settings: for viability, T/C: stronger effect = lower value; for IC50: curve of compound
In short: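 Agents were tested in combination matrices in half-log decrements from a top concentration at or near clinical Cmax (10 microM if undetermined). Targets were multi-cell spheroids of tumour lines plus HUVEC and MSC stromal cells.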

Structure (SMILES) | viability, T/C (compound 0.0316 µM) | viability, T/C (compound 0.1 µM) | viability, T/C (compound 0.316 µM) | viability, T/C (compound 1 µM) | viability, T/C (compound 3.16 µM) | viability, T/C (compound 10 µM) | IC50 | viability, T/C (compound 0.00316 µM) | viability, T/C (compound 0.01 µM)
CCC(CC)c1cc(NC2CCC(N)C2)n2nccc2n1 (configuration not stated) | 106% and 101% and 105% (2×) | 108% [middle of 4 runs] | 101% [middle of 4 runs] | 88.2% [middle of 4 runs] | 15.2% [middle of 4 runs] | 0.91% [middle of 4 runs] | 1.81 µM [middle of 4 runs] | – | –
C=CC(=O)Nc1cc(Nc2nccc(-c3cn(C)c4ccccc34)n2)c(OC)cc1N(C)CCN(C)C | 102% [middle of 4 runs] | – | 107% [middle of 4 runs] | – | – | – | > 1 µM | 109% (2×) and 103% and 107% | 105% [middle of 4 runs]
